Patent publication US20080260636A1, “STABILIZATION OF RADIONUCLIDE-CONTAINING COMPOSITIONS” (priority 2001, published 2008)
Where a SMILES comes first, the peptide text is derived from it. [ ]: non-standard residue; d: D form. The star is where a group is joined. X1 = NCCCC[C@H](NC(=O)[C@H](CS)NC(=O)[C@H](CCCCN)NC(=O)[C@@H](N)CNC(=O)C*)C(N)=O; NMeF = CN[C@@H](Cc1ccccc1)C(=O)O; hCys = N[C@@H](CCS)C(=O)O

Assays:
[1] = RCP of single vial kit (iodide formulated with targeting agent) reconstituted with Tc 99m; format: physicochemical
Experimental: (§1) KI affords stability to Tc-99m depreotide even when an oxidant (i.e. nitrate) is present in the eluate. Potassium iodide is well tolerated in humans unlike other stabilizing agents such as methionine or trolox. Methods for determining the RCP value are known in the art such as described in Cancer Res. (1998), May 1, 58(9):1850-1859, and J. Nucl. Med. (1996), June, 37(6): 1016-1022.
(§2) Further examples were conducted to show the stabilizing effect of the iodide ion for other complexes under varying conditions and with varying amounts and sources (KI and NaI) of iodide ion.

[2] = RCP of 2-vial kit (iodide added to formulated kit, then Tc-99m added); format: physicochemical; conditions: 2-vials
Experimental: as §1, §2

Q: With `CC(C)[C@@H]1NC(=O)[C@H](CCCCN)NC(=O)[C@@H](Cc2c[nH]c3ccccc23)NC(=O)[C@H](Cc2ccc(O)cc2)NC(=O)[C@H](Cc2ccccc2)N(C)C(=O)[C@H](CCSCC(=O)NC[C@H](N)C(=O)N[C@@H](CCCCN)C(=O)N[C@@H](CS)C(=O)N[C@@H](CCCCN)C(N)=O)NC1=O` [Depreotide, depreotide] (cyclo([hCys](X1)[NMeF]Y[dW]KV)) as the compound, how does the “% RCP” value ([1]; KI 4 mg, 5 h) read?
A: Its value is 89%.

Q: What about the “% RCP” value ([1]; KI 5 mg, 6 h) of the same compound?
A: Its value is 93%.

Q: And the “% RCP” value ([1]; KI 6 mg, 5 h)?
A: The value was 95%.

Q: What about the “% RCP” value ([1]; NaI 8 mg, 6 h) of the same compound?
A: Its value is 91%.

Q: What about the “% RCP” value ([1]; NaI 10 mg, 5 h) of the same compound?
A: The value was 93%.

Q: And the “% RCP” value ([2]; KI 4 mg, 5 h)?
A: The value was 94%.

Q: And the “% RCP” value ([2]; KI 6 mg, 5 h)?
A: Its value is 94%.

Q: What about the “% RCP” value ([2]; KI 10 mg, 6 h) of the same compound?
A: The value was 95%.
